Consider two compounds from patent US20100323434A1, “Compartmentalized Nerve Culture System” (priority 2009, published 2010).

For data set [1], the system named is Primary hippocampal neurons. The data set is described as follows: Oxidative stress by H2O2 added selectively to the somal compartment of the microfluidic device. Conditions: added to somal compartment of one group of neuronal cell bodies (2 mM peroxide media); over the course of 24-72 h. Type of data set: cell-based.
The test system of data set [2] is Dorsal root ganglia (DRG) neuronal cultures. Type of data set: cell-based, rats. The following applies: rat, 24 h, 25 ng/mL. From the text:
A two-step photolithographic process was utilized to create the master mold. Silicon wafers (University Wafer, MA) were coated with SU-8 2002 (Microchem; MA), spun, and soft baked using parameters specified by the manufacturer to yield a resist thickness of 2.5 microns. An array of microchannels, each with dimensions: width=10 microns, length=500 microns, were defined by UV light exposure through a high resolution DPI transparency (Cad/Art, OR). The exposed substrate was once again baked, to enhance polymer cross-linking post exposure, and developed as stated in the resist technical sheet to fully define the microchannels. […]
In order to identify the susceptibility of axons and cell bodies to paclitaxel, we added 25 ng/mL of paclitaxel to either axon or cell body chambers and continued to culture the DRGs for another 24 hours. Once images of the fluorescently labeled cells and axons were captured, we used ImageJ to calculate axon lengths and calculated percent change in axon length compared to 24 hours before taxol exposure.
Studies on the neuroprotective effect of EPO were performed with concurrent administration of paclitaxel, which was applied to either the neuronal cell body or axonal side. […] Axon degeneration was defined as the change in axon length over the total axon length expressed as a percentage.

On to `OO` [H2O2], for which, in data set [1], the “neuronal cell death and axonal degeneration” value was “induction of neuronal cell death and accompanying axonal degeneration”. `CC(=O)O[C@H]1C(=O)[C@@]2(C)[C@H]([C@H](OC(=O)c3ccccc3)[C@]3(O)C[C@H](OC(=O)[C@H](O)[C@@H](NC(=O)c4ccccc4)c4ccccc4)C(C)=C1C3(C)C)[C@]1(OC(C)=O)CO[C@@H]1C[C@@H]2O` [paclitaxel, Paclitaxel, reference compound]: the “decrease in the length of axons” value in data set [2] was determined as 28.6 ± 11.2%.
